In this test the test system is anti-VGKC complex antibody positive patient with fibromyalgia. Description: Pain-relieving experiment by an anticonvulsant agent (patient pain VAS). The format is in vivo, human. To be noted: patient B; clonazepam 1.5 mg orally; non-depression type fibromyalgia, anti-VGKC complex antibody more than 100 pM. The text has this: Pain-relieving experiments by an anticonvulsant agent for each anti-VGKC complex antibody positive patient with fibromyalgia
It is considered that the pain can be relieved by an anticonvulsant agent for an anti-VGKC complex antibody positive patient with fibromyalgia. Thus, for 3 patients (to whom a level of anti-VGKC complex antibody of more than 100 pM was detected) among 4 anti-VGKC complex antibody positive patients with fibromyalgia in Example 1, a pain-relieving experiment by an anticonvulsant agent for an anti-VGKC complex antibody positive patient with fibromyalgia was conducted. These patients were patients with fibromyalgia of non-depression type.
To patient A, gabapentine 900 mg and clonazepam 0.5 mg were orally administered. As a result, the value of patient pain VAS was reduced to 40 based on 100 before administration.
To patient B, clonazepam 1.5 mg was orally administered. As a result, the value of patient pain VAS was reduced to 30 based on 100 before administration.
To patient C, gabapentine 1600 mg and clonazepam 1.0 mg were orally administered. As a result, the value of patient pain VAS was reduced to 20 based on 100 before administration.

Consider `O=C1CN=C(c2ccccc2Cl)c2cc([N+](=O)[O-])ccc2N1` [clonazepam], for which the “value of patient pain VAS after administration, based on 100 before administration” value is 30.

(Values after patent publication US20130196980A1, “[…], […] AND THERAPEUTIC AGENT FOR FIBROMYALGIA” (AXIS INC., priority 2010, published 2013).)
